Reference: the NIST ThermoML archive (doi:10.1016/j.fluid.2006.01.028)
Numbers after ± are expanded uncertainties.

Tests used:
[1] = for surface tension liquid-gas: Drop volume; for mass density: Liquid
[2] = xn = mol fraction of the nth substance listed; details: for surface tension liquid-gas: Drop volume; for mass density: 101 kPa, Liquid

Compound: CCCCCCCCC [nonane]
- surface tension liquid-gas ([1]; 288.15 K): 23.38 ± 0.27 mN/m
- mass density ([1]; 288.15 K): 721.78 ± 1.4 kg/m3
- surface tension liquid-gas ([1]; 298.15 K): 22.37 ± 0.26 mN/m
- mass density ([1]; 298.15 K): 714.02 ± 1.4 kg/m3
- surface tension liquid-gas ([1]; 308.15 K): 21.25 ± 0.25 mN/m
- mass density ([1]; 308.15 K): 706.21 ± 1.4 kg/m3

Compound: CCCCCCCCC [nonane] + CCCCCCO
- surface tension liquid-gas ([2]; 288.15 K, x1 = 0.05): 25.77 ± 0.2 mN/m
- surface tension liquid-gas ([2]; 288.15 K, x1 = 0.1082): 25.47 ± 0.2 mN/m
- surface tension liquid-gas ([2]; 288.15 K, x1 = 0.2075): 25.06 ± 0.21 mN/m
- surface tension liquid-gas ([2]; 288.15 K, x1 = 0.3079): 24.62 ± 0.22 mN/m
- surface tension liquid-gas ([2]; 288.15 K, x1 = 0.4075): 24.31 ± 0.22 mN/m
- surface tension liquid-gas ([2]; 288.15 K, x1 = 0.5066): 24.01 ± 0.23 mN/m
- surface tension liquid-gas ([2]; 288.15 K, x1 = 0.6024): 23.81 ± 0.24 mN/m
- surface tension liquid-gas ([2]; 288.15 K, x1 = 0.7079): 23.68 ± 0.25 mN/m
- surface tension liquid-gas ([2]; 288.15 K, x1 = 0.8081): 23.57 ± 0.26 mN/m
- surface tension liquid-gas ([2]; 288.15 K, x1 = 0.9036): 23.48 ± 0.27 mN/m
- surface tension liquid-gas ([2]; 288.15 K, x1 = 0.9554): 23.44 ± 0.27 mN/m
- mass density ([2]; 288.15 K, x1 = 0.0509): 815.13 ± 0.6 kg/m3
- mass density ([2]; 288.15 K, x1 = 0.1003): 808.46 ± 0.62 kg/m3
- mass density ([2]; 288.15 K, x1 = 0.2028): 795.35 ± 0.66 kg/m3
- mass density ([2]; 288.15 K, x1 = 0.307): 783.01 ± 0.7 kg/m3
- mass density ([2]; 288.15 K, x1 = 0.4026): 772.51 ± 0.73 kg/m3
- mass density ([2]; 288.15 K, x1 = 0.5086): 761.75 ± 0.77 kg/m3
- mass density ([2]; 288.15 K, x1 = 0.6016): 753.02 ± 0.8 kg/m3
- mass density ([2]; 288.15 K, x1 = 0.708): 743.74 ± 0.83 kg/m3
- mass density ([2]; 288.15 K, x1 = 0.808): 735.7 ± 0.86 kg/m3
- mass density ([2]; 288.15 K, x1 = 0.9016): 728.72 ± 0.89 kg/m3
- mass density ([2]; 288.15 K, x1 = 0.9506): 725.26 ± 0.91 kg/m3
- surface tension liquid-gas ([2]; 298.15 K, x1 = 0.0504): 24.84 ± 0.2 mN/m
- surface tension liquid-gas ([2]; 298.15 K, x1 = 0.1004): 24.54 ± 0.2 mN/m
- surface tension liquid-gas ([2]; 298.15 K, x1 = 0.2042): 24.12 ± 0.2 mN/m
- surface tension liquid-gas ([2]; 298.15 K, x1 = 0.2998): 23.69 ± 0.21 mN/m
- surface tension liquid-gas ([2]; 298.15 K, x1 = 0.388): 23.41 ± 0.22 mN/m
- surface tension liquid-gas ([2]; 298.15 K, x1 = 0.5011): 23.07 ± 0.22 mN/m
- surface tension liquid-gas ([2]; 298.15 K, x1 = 0.606): 22.84 ± 0.23 mN/m
- surface tension liquid-gas ([2]; 298.15 K, x1 = 0.7086): 22.66 ± 0.24 mN/m
- surface tension liquid-gas ([2]; 298.15 K, x1 = 0.8085): 22.56 ± 0.25 mN/m
- surface tension liquid-gas ([2]; 298.15 K, x1 = 0.9007): 22.48 ± 0.26 mN/m
- surface tension liquid-gas ([2]; 298.15 K, x1 = 0.9508): 22.39 ± 0.26 mN/m
- mass density ([2]; 298.15 K, x1 = 0.0509): 807.93 ± 0.6 kg/m3
- mass density ([2]; 298.15 K, x1 = 0.1003): 801.18 ± 0.62 kg/m3
- mass density ([2]; 298.15 K, x1 = 0.2028): 787.95 ± 0.66 kg/m3
- mass density ([2]; 298.15 K, x1 = 0.307): 775.48 ± 0.7 kg/m3
- mass density ([2]; 298.15 K, x1 = 0.4026): 764.9 ± 0.73 kg/m3
- mass density ([2]; 298.15 K, x1 = 0.5086): 754.06 ± 0.77 kg/m3
- mass density ([2]; 298.15 K, x1 = 0.6016): 745.28 ± 0.8 kg/m3
- mass density ([2]; 298.15 K, x1 = 0.708): 735.96 ± 0.84 kg/m3
- mass density ([2]; 298.15 K, x1 = 0.808): 727.88 ± 0.87 kg/m3
- mass density ([2]; 298.15 K, x1 = 0.9016): 720.88 ± 0.9 kg/m3
- mass density ([2]; 298.15 K, x1 = 0.9506): 717.44 ± 0.91 kg/m3
- surface tension liquid-gas ([2]; 308.15 K, x1 = 0.0511): 23.81 ± 0.19 mN/m
- surface tension liquid-gas ([2]; 308.15 K, x1 = 0.1013): 23.52 ± 0.19 mN/m
- surface tension liquid-gas ([2]; 308.15 K, x1 = 0.2059): 23.08 ± 0.2 mN/m
- surface tension liquid-gas ([2]; 308.15 K, x1 = 0.3066): 22.59 ± 0.2 mN/m
- surface tension liquid-gas ([2]; 308.15 K, x1 = 0.404): 22.27 ± 0.21 mN/m
- surface tension liquid-gas ([2]; 308.15 K, x1 = 0.5065): 21.98 ± 0.22 mN/m
- surface tension liquid-gas ([2]; 308.15 K, x1 = 0.6028): 21.77 ± 0.22 mN/m
- surface tension liquid-gas ([2]; 308.15 K, x1 = 0.7135): 21.59 ± 0.23 mN/m
- surface tension liquid-gas ([2]; 308.15 K, x1 = 0.8059): 21.47 ± 0.24 mN/m
- surface tension liquid-gas ([2]; 308.15 K, x1 = 0.9043): 21.34 ± 0.25 mN/m
- surface tension liquid-gas ([2]; 308.15 K, x1 = 0.9519): 21.27 ± 0.25 mN/m
- mass density ([2]; 308.15 K, x1 = 0.0509): 800.64 ± 0.61 kg/m3
- mass density ([2]; 308.15 K, x1 = 0.1003): 793.82 ± 0.63 kg/m3
- mass density ([2]; 308.15 K, x1 = 0.2028): 780.43 ± 0.67 kg/m3
- mass density ([2]; 308.15 K, x1 = 0.307): 767.86 ± 0.7 kg/m3
- mass density ([2]; 308.15 K, x1 = 0.4026): 757.19 ± 0.74 kg/m3
- mass density ([2]; 308.15 K, x1 = 0.5086): 746.28 ± 0.77 kg/m3
- mass density ([2]; 308.15 K, x1 = 0.6016): 737.44 ± 0.8 kg/m3
- mass density ([2]; 308.15 K, x1 = 0.708): 728.09 ± 0.84 kg/m3
- mass density ([2]; 308.15 K, x1 = 0.808): 719.98 ± 0.87 kg/m3
- mass density ([2]; 308.15 K, x1 = 0.9016): 712.97 ± 0.9 kg/m3
- mass density ([2]; 308.15 K, x1 = 0.9506): 709.52 ± 0.91 kg/m3

Compound: CCCCCCO [hexan-1-ol]
- surface tension liquid-gas ([1]; 288.15 K): 26.08 ± 0.2 mN/m
- mass density ([1]; 288.15 K): 822.28 ± 0.58 kg/m3
- surface tension liquid-gas ([1]; 298.15 K): 25.19 ± 0.19 mN/m
- mass density ([1]; 298.15 K): 815.23 ± 0.59 kg/m3
- surface tension liquid-gas ([1]; 308.15 K): 24.19 ± 0.19 mN/m
- mass density ([1]; 308.15 K): 808 ± 0.59 kg/m3
